Source: patent publication US9389219B2, “Methods for screening inhibitors of tumor associated protein aggregation” (Vrije Universiteit Brussel, priority 2011, dated 2016)
Entries after “also recorded” stand apart in the source; their conditions may differ. Where two headings read alike, the source gives them in different places. Where a SMILES comes first, the peptide text is derived from it. The star is where a group is joined. Cbz = O=C(OCc1ccccc1)*

Tests used:
Assay type in all cases: cell-based, human
mutant p53 = test: BN-PAGE of p53 mutants over-expressed in SaOS-2 cells with MG-132; settings: I254R double mutants
Experimental: SaOS-2 or Hela cells were rinsed with ice-cold 20 mM Tris-HCl, 150 mM NaCl, pH 7.4 (TBS) and lysed with 18 mM 3-[(3-cholamidopropyl) dimethylammonio]-1-propanesulfonic acid (CHAPS) in TBS with DNase and protease inhibitors for 30 minutes at 21° C. or on ice, respectively. Whole-cell lysate was fractionated by both SDS-PAGE (NuPAGE system, Invitrogen) and Blue-Native PAGE (NativePAGE system, Invitrogen) following the product manuals. For SDS-PAGE, sample was denatured at 95° C. for 10 minutes in the presence of 2% sodium dodecyl sulfate (SDS) and then fractionated by 10% Bis-Tris gels in MES-SDS running buffer (0.1% SDS, 50 mM MES, and 50 mM Tris-Base). For Blue-Native PAGE, cell lysate was added with 20% glycerol and 5 mM Coomassie G-250 before loading onto 3-12% Novex Bis-Tris gradient gels. […] After three times of rinsing with TBS containing 0.1% TWEEN® 20 (TBST), the membrane was stained with horseradish peroxidase (HRP)-conjugated goat anti-mouse IgG (Promega) and visualized with electrochemical luminescence (ECL) system. […]
In the degradation stability test, protein synthesis was blocked by 60 μg/mL cycloheximide 24 hours after transfection, and cells were lysed 0, 3, 6, 12, 24 and 48 hours after the addition of cycloheximide. […] Cells were analyzed by immunofluorescence after 24 hours.

WT p53 in U2OS cells [1] = test: Native page analysis of p53 in treated U2OS cells
WT p53 in U2OS cells [2] = test: Western blot of p53 in U2OS cells treated with chemotherapeutic agents
WT p53 in U2OS cells [3] = test: Immunofluorescent staining for p53 inclusions, InCell Analyzer 2000; settings: >1000 cells/condition
Excerpt: It is becoming increasingly evident that resistance is also seen in cancers harboring wild-type p53, which might be explained by a change of conformation of wt p53 into a “mutant configuration.”^76 Cell lines harboring wt p53 were used and enhanced the expression using previously described chemotherapeutic agents. […] When performing immunofluorescent staining for p53 in U2OS cells, increased accumulation of non-soluble, inclusions of p53 in the cytoplasm was subsequently observed.

SMILES: CC(C)C[C@@H](C=O)NC(=O)[C@H](CC(C)C)NC(=O)[C@H](CC(C)C)NC(=O)OCc1ccccc1 [MG132] (Cbz-Leu-Leu-Leu-aldehyde)
- proteasomal degradation of mutant p53 (mutant p53): inhibited proteasomal degradation of mutant p53
- p53 high molecular-weight species (native page) (WT p53 in U2OS cells [1]): smear was comparable

SMILES: N.N.[Cl][Pt][Cl] [cisplatin]
- p53 expression level (Western blot) (WT p53 in U2OS cells [2]): started to accumulate WT p53
- p53 expression level (Western blot) (WT p53 in U2OS cells [2]; listed as Cisplatin): increased expression levels of p53
- p53 high molecular-weight species (native page) (WT p53 in U2OS cells [1]): part of p53 ran as a high molecular weight smear; also recorded: high molecular-weight species of p53
- increase in cytoplasmic aggregates of p53 (WT p53 in U2OS cells [3]): greater than three-fold increase
